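All cell lines were grown in 96-well plates and treated with compound for 48 hours. At the GI50, growth is halved.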 Activity calls are given as the source filed them. No stated cut-off is given here; in the data, active = GI50 up to about 1.1 µM and inactive = higher.
Legend:
Experiment in all cases: NCI-60 cell line screen, 48 h
[1] = tested on: ACHN
[2] = tested on: BT-549
[3] = tested on: CAKI-1
[4] = tested on: CCRF-CEM
[5] = tested on: DU-145
[6] = tested on: HL-60
[7] = tested on: HOP-92
[8] = tested on: K562
[9] = tested on: KM12
[10] = tested on: LOX IMVI
[11] = tested on: M14
[12] = tested on: MDA-N
[13] = tested on: Malme-3M
[14] = tested on: NCI-H23
[15] = tested on: OVCAR-5
[16] = tested on: RPMI-8226
[17] = tested on: SK-OV-3
[18] = tested on: HOP-62
[19] = tested on: TK-10

Measured: GI50

O=C(/C=C/c1ccccc1)CCc1c(O)c2ccccc2oc1=O
inactive: [1] > 100 µM | [2] 32.4 µM | [3] > 100 µM | [4] 45.4 µM | [5] > 100 µM | [6] > 10 µM | [7] 18 µM | [8] 49.4 µM | [9] 40.8 µM | [10] 52.5 µM | [11] > 100 µM | [12] 71.9 µM | [13] > 100 µM | [14] 65.5 µM | [15] > 100 µM | [16] 32.3 µM | [17] > 100 µM

Cc1ccsc1/C=N/Nc1ccc2ccccc2n1
inactive: [1] 15.1 µM | [2] 34.4 µM | [3] 17.5 µM | [4] 27.5 µM | [5] 48.9 µM | [6] 11.8 µM | [18] 19.8 µM | [7] 17.9 µM | [8] 59.8 µM | [9] 32.1 µM | [10] 24.2 µM | [11] 29.1 µM | [12] 43.4 µM | [14] 51.1 µM | [15] > 100 µM | [16] 48.8 µM | [17] 16.5 µM | [19] 19.9 µM

C[n+]1c(/C=C/c2ccc(/C=N/NC(=O)c3ccc(C(=O)N/N=C/c4ccc(/C=C/c5cn6ccccc6[n+]5C)cc4)cc3)cc2)cn2ccccc21
inactive: [1] > 100 µM | [2] > 100 µM | [3] > 100 µM | [4] 20 µM | [5] > 100 µM | [6] 23.4 µM | [18] > 100 µM | [7] > 100 µM | [9] > 100 µM | [10] > 100 µM | [11] > 100 µM | [12] > 100 µM | [13] > 100 µM | [14] > 100 µM | [15] > 100 µM | [16] > 100 µM | [17] > 100 µM | [19] > 100 µM

C=C[C@@H]1C[C@]2(C(=O)OC)Cc3nc4ccccc4nc3CC(C(=O)OC)=C2O1
inactive: [1] > 100 µM | [2] 57.1 µM | [3] > 100 µM | [4] 41.8 µM | [5] > 100 µM | [6] 80.5 µM | [18] > 100 µM | [9] 75.5 µM | [10] 45.6 µM | [11] 80.7 µM | [12] 46.8 µM | [13] > 100 µM | [14] 69.8 µM | [15] > 100 µM | [16] 34 µM | [17] > 100 µM | [19] > 100 µM

Cc1ccc(S(=O)(=O)N2CCCSCCN(S(=O)(=O)c3ccc(C)cc3)CCCSCC2)cc1
inactive: [1] > 100 µM | [2] > 100 µM | [5] > 100 µM | [6] > 100 µM | [18] > 100 µM | [7] > 100 µM | [8] > 100 µM | [9] > 100 µM | [11] > 100 µM | [12] > 100 µM | [14] > 100 µM | [15] > 100 µM | [16] > 100 µM | [17] > 100 µM | [19] > 100 µM

CS(=O)(=O)c1ccc(/C=N/NC(N)=S)cc1
inactive: [1] > 100 µM | [2] > 100 µM | [3] > 100 µM | [5] > 100 µM | [6] > 100 µM | [18] > 100 µM | [7] > 100 µM | [8] > 100 µM | [9] > 100 µM | [10] > 100 µM | [11] > 100 µM | [12] > 100 µM | [13] > 100 µM | [14] > 100 µM | [15] > 100 µM | [16] > 100 µM | [17] > 100 µM | [19] > 100 µM

From ChEMBL document CHEMBL1201862, “PubChem BioAssay data set” (2004)
